Source: patent publication US20240101602A1, “ANTIMICROBIAL PEPTIDES AND METHOD OF PREVENTING OR TREATING INFECTION BY USING THE SAME” (priority 2020, published 2024)
In brackets after ≈: the same amount, converted by molar mass. Where two headings read alike, the source gives them in different places. Residues, ends and D or L forms follow the SMILES beside them. *: point of attachment. Myristoyl = CCCCCCCCCCCCCC(=O)*

Tests used:
[1] = tested on: Staphylococcus epidermidis ATCC 14990
[2] = tested on: Acinetobacter baumannii ATCC 17978
[3] = tested on: Staphylococcus aureus BCRC 10777
Candida albicans SC5314 = conditions: Candida albicans SC5314; 48 h at 35° C., 0.125 to 64 μg/mL (Table 5)
[4] = tested on: Agrobacterium tumefaciens strain Atu C58C1; conditions: rich medium, 24 h, purified peptides
[5] = tested on: Xanthomonas oryzae pv. oryzae strain Xoo28; conditions: Xoo Xoo28; rich medium, 24 h, purified peptides
[6] = tested on: Xanthomonas campestris pv. campestris strain Xcc17; test: IC50 of bacterial growth (OD600) in rich liquid medium; format: cell-based; conditions: Xcc Xcc17, 24 h, purified peptides
Description: (§1) To measure the antimicrobial activity, single colony grown on an optimal rich agar medium for each bacterium was picked and grew in 3 mL of the same rich liquid medium for 4 to 6 h. The bacterial culture was then diluted in the same medium to give a final concentration of OD600=0.08 and then further diluted […] in the same medium. In each well of a 96-well polystyrene plate, 90 μL of the diluted culture was mixed with 10 μL of the peptide to give a peptide concentration of 0, 2, 10, and 20 μg/mL (final cell concentration is 5×10^5 CFU/mL). OD600 was measured after incubation at an optimal temperature for 24 h. IC50 was determined as the lowest peptide concentration inhibiting 50% of bacterial growth.

[7] = tested on: Xanthomonas euvesicatoria strain Xvt28; test: as above; format: cell-based; conditions: Xev Xvt28, 24 h, purified peptides
Description: as §1

[8] = tested on: Escherichia coli strain DH5a; conditions: 24 h
[9] = tested on: Xanthomonas oryzae pv. oryzae strain Xoo28; conditions: Xoo Xoo28; Table 7
Cgl FST02 = format: cell-based, Colletotricum gloeosporioides; conditions: Cgl FST02; optimal minimal medium, crude peptides (Table 9)
Description: (§2) The experiments were conducted in an optimal minimal medium for each pathogen. The media and growth conditions were described in Tables 2 and 3. MIC and MBC values were determined following the procedures described above. […] Fifty microliters of serially diluted peptides (2-fold the final concentration) were added in a 96-well polystyrene plate with 50 μL of the fungal spore suspension. […] The plates were incubated at an optimal temperature without shaking. […] MFC was determined as the lowest peptide concentration at which no fungal growth was observed.

[10] = tested on: Agrobacterium tumefaciens strain Atu C58C1
[11] = tested on: bacteria, fungal spores, and fungal mycelia; format: cell-based; conditions: SYTOX Green, crude peptides, room temperature in dark for 2 h
[12] = tested on: Ralstonia solanacearum strain Pss190; conditions: Rs Pss190; optimal minimal medium, crude peptides (Table 9)
[13] = tested on: Pseudomonas syringae pv. syringae strain B728a; conditions: Pss B728a; Table 7
[14] = tested on: Pseudomonas syringae pv. tomato strain DC3000
Botrytis cinerea = format: cell-based; conditions: Bc; optimal minimal medium, crude peptides (Table 9)
Description: as §2

Erwinia chrysanthemi = format: cell-based
Description: (§3) The effect of peptide length on the antimicrobial activity was investigated by deciding the minimal inhibitory concentration (MIC) and minimal bactericidal concentration (MBC) for each peptide against the pathogen with the media and growth conditions of phytopathogenic bacteria and E. coli as described in Table 1. Single bacterial colony grown on an optimal rich agar medium was picked, and each grew in 3 mL of the same rich liquid medium for 4 to 6 h. For experiments carried out in the rich medium, the bacterial broth culture was then diluted in the same medium to give a final concentration of OD600=0.08, and then further diluted 100 folds in the same medium. For experiments carried out in the minimal medium, the bacterial cells were collected from the bacterial liquid culture by centrifugation, re-suspended in an optimal minimal medium to give a final concentration of OD600=0.08, and then further diluted 100 folds in the same minimal medium. Fifty microliters of serially diluted peptides (2-fold the final concentration) were added in a 96-well polystyrene plate with 50 μL of the bacterial culture. […] The plates were incubated at an optimal temperature without shaking. […] MBC was determined as the lowest peptide concentration at which no colonies formed. The experiments were conducted in an optimal minimal medium for each pathogen. The media and growth conditions were described in Tables 2 and 3. MIC and MBC values were determined following the procedures described above. […] Fifty microliters of serially diluted peptides (2-fold the final concentration) were added in a 96-well polystyrene plate with 50 μL of the fungal spore suspension.

[15] = tested on: Pectobacterium carotovorum subsp. carotovorum; format: cell-based
Description: as §3

[16] = tested on: Klebsiella pneumonia NTUH-K2044
[17] = tested on: Xanthomonas campestris pv. campestris strain Xcc17; test: MIC and MBC by serial dilution in 96-well plate; format: cell-based; conditions: Xcc Xcc17; Table 7
Description: (§4) The effect of peptide length on the antimicrobial activity was investigated by deciding the minimal inhibitory concentration (MIC) and minimal bactericidal concentration (MBC) for each peptide against the pathogen with the media and growth conditions of phytopathogenic bacteria and E. coli as described in Table 1. Single bacterial colony grown on an optimal rich agar medium was picked, and each grew in 3 mL of the same rich liquid medium for 4 to 6 h.
(§5) For experiments carried out in the rich medium, the bacterial broth culture was then diluted in the same medium to give a final concentration of OD600=0.08, and then further diluted 100 folds in the same medium.
(§6) For experiments carried out in the minimal medium, the bacterial cells were collected from the bacterial liquid culture by centrifugation, re-suspended in an optimal minimal medium to give a final concentration of OD600=0.08, and then further diluted 100 folds in the same minimal medium.
(§7) Fifty microliters of serially diluted peptides (2-fold the final concentration) were added in a 96-well polystyrene plate with 50 μL of the bacterial culture. The final concentrations of peptides were 0, 2, 4, 8, 16 and 32 μg/mL. The plates were incubated at an optimal temperature without shaking.
(§8) MBC was determined as the lowest peptide concentration at which no colonies formed.

[18] = tested on: Xanthomonas euvesicatoria strain Xvt28; test: MIC and MBC by serial dilution in 96-well plate; format: cell-based; conditions: Xev Xvt28; Table 7
Description: as §4, §5, §6, §7, §8

Eco DH5α = test: MIC and MBC by serial dilution in 96-well plate; format: cell-based, Escherichia coli
Description: as §4, §5, §6, §7, §8

[19] = tested on: Ralstonia solanacearum strain Pss4; conditions: Rs Pss4; optimal minimal medium, crude peptides (Table 9)
[20] = Circular dichroism spectroscopy, secondary structure deconvolution; conditions: dissolved in water, structural deconvolution of CD spectra
[21] = Eco DH5α, rich medium, purified peptides

For `CCCCCCCCCCCCCC(=O)N[C@@H](Cc1c[nH]c2ccccc12)C(=O)N[C@@H](CCCCN)C(=O)N[C@@H](CCCCN)C(=O)N[C@H](C(=O)N[C@@H](CCCCN)C(=O)N[C@@H](CCCCN)C(=O)N[C@H](C(=O)N[C@H](C(=O)N[C@@H](CCCCN)C(=O)N[C@@H](CCCCN)C(=O)N[C@H](C(=O)N[C@@H](CCCCN)C(=O)N[C@@H](CCCCN)C(=O)N[C@H](C(N)=O)C(C)C)C(C)C)C(C)C)C(C)C)C(C)C` [pepV2M] (Myristoyl-WKKVKKVVKKVKKV-NH2), the MBC [1] was 16 mg/L (≈ 8.27 µM), the MIC [1] was 16 mg/L (≈ 8.27 µM) and the MBC [2] was 16 mg/L (≈ 8.27 µM). The MBC [3] was 16 mg/L (≈ 8.27 µM) and the MIC [3] was 8 mg/L (≈ 4.14 µM).
Work on Ac-WKLLKKLLKKLKKLLKKL-NH2 [pepC] yielded an MIC (Candida albicans SC5314) of 32.0 mg/L, an IC50 [4] of 12.5 mg/L and an IC50 [5] of 12.5 mg/L. It also gave an IC50 [6] of 10.0 mg/L, an IC50 [7] of 8.0 mg/L and an IC50 [8, 21] of 10.0 mg/L.
In the case of Ac-WKLKLKLKLKLKLKLKLK-NH2 [pepE], the MIC (Candida albicans SC5314) is reported as “— (“—” indicates no antimicrobial activity being detected at the highest peptide concentration (64 μg/mL) tested.)”, the IC50 [4] is reported as 20.0 mg/L and the IC50 [5] is reported as 7.3 mg/L. The IC50 [6] was 4.0 mg/L, the IC50 [7] was 2.0 mg/L and the IC50 ([8]; DH5a) was 10.0 mg/L.
`CCCCCCCCCCCCCC(=O)N[C@@H](Cc1c[nH]c2ccccc12)C(=O)N[C@@H](CCCCN)C(=O)N[C@@H](CCCCN)C(=O)N[C@H](C(=O)N[C@@H](CCCCN)C(=O)N[C@@H](CCCCN)C(=O)N[C@H](C(=O)N[C@H](C(=O)N[C@@H](CCCCN)C(=O)N[C@@H](CCCCN)C(=O)N[C@H](C(=O)N[C@@H](CCCCN)C(=O)N[C@@H](CCCCN)C(=O)N[C@H](C(N)=O)[C@@H](C)CC)[C@@H](C)CC)[C@@H](C)CC)[C@@H](C)CC)[C@@H](C)CC` [pepI2M] (Myristoyl-WKKIKKIIKKIKKI-NH2) gave an MBC [2] of 32 mg/L (≈ 16 µM).
Work on `CCCCCCCCCCCCCC(=O)N[C@@H](Cc1c[nH]c2ccccc12)C(=O)N[C@@H](CCCCN)C(=O)N[C@@H](CCCCN)C(=O)N[C@H](C(=O)N[C@@H](CCCCN)C(=O)N[C@@H](CCCCN)C(=O)N[C@@H](CC(C)C)C(=O)N[C@H](C(=O)N[C@@H](CCCCN)C(=O)N[C@@H](CCCCN)C(=O)N[C@@H](CC(C)C)C(N)=O)C(C)C)C(C)C` [pepD3(V)M] (Myristoyl-WKKVKKLVKKL-NH2) yielded an MBC [1] of 16 mg/L (≈ 9.95 µM), an MIC [1] of 16 mg/L (≈ 9.95 µM) and an MBC [2] of 16 mg/L (≈ 9.95 µM). For the same compound, the MBC [3] was 16 mg/L (≈ 9.95 µM) and the MIC [3] was 16 mg/L (≈ 9.95 µM).
For Ac-WKKLKKLLKKLKKL-NH2 [pepD2], the MBC [9] was 6.0 mg/L, the MIC [9] was 5.0 mg/L and the MBC/MFC (Cgl FST02) was “— (“—” indicates no antimicrobial activity being detected at the highest peptide concentration (32 μg/mL) tested in this study.)”. For the same compound, the MIC (Cgl FST02) was “— (“—” indicates no antimicrobial activity being detected at the highest peptide concentration (32 μg/mL) tested in this study.)”, the MBC [10] was 2.2 mg/L and the MIC [10] was 1.6 mg/L. For the same compound, the MBC [1] was 32 mg/L, the MIC [1] was 16 mg/L and the “membranolytic effect on the cell walls of bacteria, fungal spores, and fungal mycelia” value [11] was “significant membranolytic effect”. The MBC/MFC [12] was “— (“—” indicates no antimicrobial activity being detected at the highest peptide concentration (32 μg/mL) tested in this study.)”, the MIC [12] was “— (“—” indicates no antimicrobial activity being detected at the highest peptide concentration (32 μg/mL) tested in this study.)” and the MBC [13] was 14.7 mg/L. It also gave an MIC [13] of 6.0 mg/L, an MBC [14] of 8.8 mg/L and an MIC [14] of 4.8 mg/L. The MBC/MFC (Botrytis cinerea) was “— (“—” indicates no antimicrobial activity being detected at the highest peptide concentration (32 μg/mL) tested in this study.)”, the MIC (Botrytis cinerea) was “— (“—” indicates no antimicrobial activity being detected at the highest peptide concentration (32 μg/mL) tested in this study.)” and the MBC (Erwinia chrysanthemi) was 32.0 mg/L. The MBC/MFC (Erwinia chrysanthemi) was 21.3 mg/L, the MBC [15] was 18.8 µg/mL and the MBC/MFC [15] was 8.0 mg/L. For the same compound, the MBC ([15]; Pcc, Table 13) was 6.7. μg/mL, the MBC [16] was 16 mg/L and the MIC [16] was 16 mg/L. For the same compound, the MBC [17] was 1.0 mg/L, the MIC [17] was 1.0 mg/L and the MBC [18] was 3.5 mg/L. The MIC [18] was 3.0 mg/L, the MBC (Eco DH5α; Table 7) was 7.0 mg/L and the MIC (Eco DH5α; Table 7) was 4.3 mg/L. For the same compound, the MBC (Eco DH5α; Table 13) was 8.0 mg/L, the MIC (Eco DH5α; Table 13) was 8.0 mg/L and the MBC [3] was 16 mg/L. For the same compound, the MIC [3] was 16 mg/L, the MBC/MFC [19] was “— (“—” indicates no antimicrobial activity being detected at the highest peptide concentration (32 μg/mL) tested in this study.)” and the MIC [19] was “— (“—” indicates no antimicrobial activity being detected at the highest peptide concentration (32 μg/mL) tested in this study.)”.
For WKLLKLLLKLLKLLLKLL [pepA], the MIC (Candida albicans SC5314) was “— (“—” indicates no antimicrobial activity being detected at the highest peptide concentration (64 μg/mL) tested.)”, the IC50 [4] was “— (“—” indicates no antimicrobial activity being detected at the highest peptide concentration (20 μg/mL) tested in this study.)” and the IC50 [5] was “— (“—” indicates no antimicrobial activity being detected at the highest peptide concentration (20 μg/mL) tested in this study.)”. For the same compound, the IC50 [6] was “— (“—” indicates no antimicrobial activity being detected at the highest peptide concentration (20 μg/mL) tested in this study.)”, the IC50 [7] was “— (“—” indicates no antimicrobial activity being detected at the highest peptide concentration (20 μg/mL) tested in this study.)” and the α-helix content [20] was “over 90%”. For the same compound, the IC50 [8, 21] was “— (“—” indicates no antimicrobial activity being detected at the highest peptide concentration (20 μg/mL) tested in this study.)”.
